The results in this text go back to patent US10280159B2 (AbbVie Deutschland GmbH & Co. KG, priority 2015, dated 2019).

Structures can show the parent of a compound that is named as a salt.

What all share (format): cell-based
For one assay, the target named is T1, human S1PR5 (Homo sapiens, UniProt Q9H228).
T1 construct: host or cells: CHO-K1
Briefly: Intracellular Ca2+ release (FLIPR) agonist potency, S1P5. The note with it: recombinant CHO-K1 cells expressing human S1PR5, aequorin, Gq/i5; Calcium 5 FLIPR; read-out: S1P5 EC50 range. The method, then: (§1) Agonistic activity was measured using the method described below.
(§2) Intracellular Ca^2+ Release
(§3) Agonist potency and intrinsic activity was assessed by measurement of intracellular Ca^2+ release. Recombinant CHO-K1 cells (Euroscreen, Brussels, Belgium) expressing human S1PR5, S1PR1, S1PR3 or S1PR4 receptors, aequorin, and GTP binding protein Gq/i5 were cultured using a medium containing nutrient mixture F-12 Ham (Sigma-Aldrich) with 10% FBS, and 100 μg/mL gentamicin and equilibrated at 5% CO2.
(§4) Phospho-fingolimod was used as positive control. Antagonists were pre-incubated for 10 min with cells before addition of the agonist (phospho-fingolimod at EC80). Measurements were performed using a fluorometric imaging plate reader FLIPR®tetra (Molecular Devices). Agonist at the human S1P receptors were characterized by deducing EC50 (potency) values from a nonlinear fit to the measured fluorescence raw data after normalization to the reference agonist (phospho-fingolimod) curve.

For a further assay, the target named is T2, human S1PR1 (Homo sapiens, UniProt P21453).
T2 construct: host or cells: CHO-K1
T2 sequence (P21453 whole entry): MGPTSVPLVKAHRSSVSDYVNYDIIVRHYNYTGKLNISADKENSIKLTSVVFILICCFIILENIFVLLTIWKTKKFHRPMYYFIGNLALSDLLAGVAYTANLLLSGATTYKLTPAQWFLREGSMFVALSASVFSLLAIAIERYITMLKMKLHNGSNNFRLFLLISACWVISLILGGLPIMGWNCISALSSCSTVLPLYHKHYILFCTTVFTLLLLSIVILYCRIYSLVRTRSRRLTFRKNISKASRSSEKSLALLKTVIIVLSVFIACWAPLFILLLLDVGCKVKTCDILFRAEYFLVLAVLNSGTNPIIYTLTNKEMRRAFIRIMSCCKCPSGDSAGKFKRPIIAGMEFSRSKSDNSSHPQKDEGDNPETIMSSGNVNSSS
Briefly: Intracellular Ca2+ release (FLIPR) agonist potency, S1P1. The note with it: recombinant CHO-K1 cells expressing human S1PR1, aequorin, Gq/i5; Calcium 5 FLIPR; read-out: S1P1 EC50. The method, then:
as §1, §2, §3, §4

For a further assay, the target named is T3, human S1PR4 (Homo sapiens, UniProt O95977).
T3 construct: host or cells: CHO-K1
T3 sequence (O95977 1-384): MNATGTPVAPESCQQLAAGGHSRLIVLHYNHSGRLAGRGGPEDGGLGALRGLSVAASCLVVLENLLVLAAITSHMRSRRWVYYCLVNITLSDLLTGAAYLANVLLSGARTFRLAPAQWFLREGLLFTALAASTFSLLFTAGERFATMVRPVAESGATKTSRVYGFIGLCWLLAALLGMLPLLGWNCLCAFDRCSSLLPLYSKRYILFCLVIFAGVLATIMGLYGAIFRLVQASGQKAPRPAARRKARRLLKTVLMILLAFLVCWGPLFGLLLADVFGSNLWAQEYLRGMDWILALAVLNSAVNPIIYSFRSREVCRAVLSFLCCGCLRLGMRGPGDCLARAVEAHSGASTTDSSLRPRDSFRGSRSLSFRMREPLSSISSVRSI
Briefly: Intracellular Ca2+ release (FLIPR) agonist potency, S1P4. The note with it: recombinant CHO-K1 cells expressing human S1PR4, aequorin, Gq/i5; Calcium 5 FLIPR; read-out: S1P4 EC50. The method, then:
as §1, §2, §3, §4

T1 sequence (Q9H228 whole entry): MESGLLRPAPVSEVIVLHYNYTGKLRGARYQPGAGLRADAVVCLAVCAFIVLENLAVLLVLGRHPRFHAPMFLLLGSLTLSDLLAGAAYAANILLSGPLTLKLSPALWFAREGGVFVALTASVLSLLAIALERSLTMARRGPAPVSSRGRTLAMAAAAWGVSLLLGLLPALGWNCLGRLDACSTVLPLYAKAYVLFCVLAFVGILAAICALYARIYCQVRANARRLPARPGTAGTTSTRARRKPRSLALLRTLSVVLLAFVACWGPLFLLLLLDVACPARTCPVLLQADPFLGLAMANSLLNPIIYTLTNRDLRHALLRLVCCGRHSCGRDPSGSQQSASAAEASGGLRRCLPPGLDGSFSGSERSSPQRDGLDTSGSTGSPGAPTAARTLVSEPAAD

With `N#Cc1ccc(COc2ccc3c(c2)OCC(N2CC(C(=O)O)C2)C3)c(F)c1` (stereo not drawn) [Compound 89, 1-[7-[(4-cyano-2-fluoro-phenyl)methoxy]chroman-3-yl]azetidine-3-carboxylic acid], the EC50 on human S1PR5 is 1000 to 10000 nM; at human S1PR1, greater than 1000 nM; at human S1PR4, greater than 1000 nM.

For the compound `O=C(O)C1CN(C2COc3cc(OCc4cc(F)cc(C(F)(F)F)c4)ccc3C2)C1` (stereo not drawn) [Compound 90, 1-[7-[[3-fluoro-5-(trifluoromethyl)phenyl]methoxy]chroman-3-yl]azetidine-3-carboxylic acid], the EC50 is 10 to 100 nM on human S1PR5, greater than 1000 nM on human S1PR1 and less than 1000 nM at human S1PR4.

Regarding `O=C(O)C1CN(C2COc3cc(OCc4cc(F)ccc4C(F)(F)F)ccc3C2)C1` (stereo not drawn) [Compound 91, 1-[7-[[5-fluoro-2-(trifluoromethyl)phenyl]methoxy]chroman-3-yl]azetidine-3-carboxylic acid], the figures for the EC50 at human S1PR5, at human S1PR1 and on human S1PR4 were 100 to 1000 nM, greater than 1000 nM and greater than 1000 nM, respectively.

`COc1cc(COc2ccc3c(c2)OCC(N2CC(C(=O)O)C2)C3)ccc1F` (stereo not drawn) [Compound 92, 1-[7-[(4-fluoro-3-methoxy-phenyl)methoxy]chroman-3-yl]azetidine-3-carboxylic acid]: the EC50 at human S1PR5 is 1000 to 10000 nM; at human S1PR1, greater than 1000 nM; at human S1PR4, greater than 1000 nM.

Regarding `O=C(O)C1CN(C2COc3cc(OCCOc4ccc(F)cc4)ccc3C2)C1` (stereo not drawn) [Compound 93, 1-[7-[2-(4-fluorophenoxy)ethoxy]chroman-3-yl]azetidine-3-carboxylic acid], the EC50 was 1000 to 10000 nM at human S1PR5, greater than 1000 nM on human S1PR1 and greater than 1000 nM at human S1PR4.

Consider `O=C(O)C1CN(C2COc3cc(OCc4cccc(C(F)(F)F)c4F)ccc3C2)C1` (stereo not drawn) [Compound 94, 1-[7-[[2-fluoro-3-(trifluoromethyl)phenyl]methoxy]chroman-3-yl]azetidine-3-carboxylic acid], for which the EC50 at human S1PR5 is 1000 to 10000 nM; at human S1PR1 it was greater than 1000 nM; at human S1PR4 it was greater than 1000 nM.

`COc1ccc(COc2ccc3c(c2)OCC(N2CC(C(=O)O)C2)C3)cc1F` (stereo not drawn) [Compound 95, 1-[7-[(3-fluoro-4-methoxy-phenyl)methoxy]chroman-3-yl]azetidine-3-carboxylic acid]: the EC50 was 1000 to 10000 nM on human S1PR5, greater than 1000 nM on human S1PR1 and greater than 1000 nM at human S1PR4.

For `Cc1c(F)cccc1COc1ccc2c(c1)OCC(N1CC(C(=O)O)C1)C2` (stereo not drawn) [Compound 96, 1-[7-[(3-fluoro-2-methyl-phenyl)methoxy]chroman-3-yl]azetidine-3-carboxylic acid], the EC50 at human S1PR5 is 100 to 1000 nM; on human S1PR1 it was greater than 1000 nM; at human S1PR4, greater than 1000 nM.

For the compound `O=C(O)C1CN(C2COc3cc(OCCOc4cccc(F)c4)ccc3C2)C1` (stereo not drawn) [Compound 97, 1-[7-[2-(3-fluorophenoxy)ethoxy]chroman-3-yl]azetidine-3-carboxylic acid], the EC50 on human S1PR5 is 1000 to 10000 nM; at human S1PR1 it was greater than 1000 nM; on human S1PR4, greater than 1000 nM.

As to `COc1ccc(F)c(COc2ccc3c(c2)OCC(N2CC(C(=O)O)C2)C3)c1` (stereo not drawn) [Compound 98, 1-[7-[(2-fluoro-5-methoxy-phenyl)methoxy]chroman-3-yl]azetidine-3-carboxylic acid], the concentration giving a half-maximal response (EC50) on human S1PR5 was 1000 to 10000 nM; at human S1PR1, greater than 1000 nM; on human S1PR4, greater than 1000 nM.

As to `O=C(O)C1CN(C2COc3cc(OCCCc4cccc(F)c4)ccc3C2)C1` (stereo not drawn) [Compound 99, 1-[7-[3-(3-fluorophenyl)propoxy]chroman-3-yl]azetidine-3-carboxylic acid], the EC50 on human S1PR5 is 1000 to 10000 nM; on human S1PR1 it was greater than 1000 nM; at human S1PR4, greater than 1000 nM.

With `COc1cc(F)cc(COc2ccc3c(c2)OCC(N2CC(C(=O)O)C2)C3)c1` (stereo not drawn) [Compound 100, 1-[7-[(3-fluoro-5-methoxy-phenyl)methoxy]chroman-3-yl]azetidine-3-carboxylic acid], the results for the EC50 at human S1PR5, on human S1PR1 and at human S1PR4 were 1000 to 10000 nM, greater than 1000 nM and greater than 1000 nM, respectively.

For `COc1cccc(F)c1COc1ccc2c(c1)OCC(N1CC(C(=O)O)C1)C2` (stereo not drawn) [Compound 101, 1-[7-[(2-fluoro-6-methoxy-phenyl)methoxy]chroman-3-yl]azetidine-3-carboxylic acid], the EC50 is 1000 to 10000 nM at human S1PR5, greater than 1000 nM on human S1PR1 and greater than 1000 nM on human S1PR4.

Regarding `O=C(O)C1CN(C2COc3cc(OCCCCOc4cccc(F)c4)ccc3C2)C1` (stereo not drawn) [Compound 102, 1-[7-[4-(3-fluorophenoxy)butoxy]chroman-3-yl]azetidine-3-carboxylic acid], the results for the EC50 on human S1PR5, on human S1PR1 and on human S1PR4 were 1000 to 10000 nM, greater than 1000 nM and greater than 1000 nM, respectively.

Take `O=C(O)C1CN(C2COc3cc(OCc4ccc(C(F)(F)F)c(F)c4)ccc3C2)C1` (stereo not drawn) [Compound 103, 1-[7-[[3-fluoro-4-(trifluoromethyl)phenyl]methoxy]chroman-3-yl]azetidine-3-carboxylic acid]: the 50% effective concentration (EC50) is 1000 to 10000 nM on human S1PR5, greater than 1000 nM at human S1PR1 and greater than 1000 nM on human S1PR4.

On to `O=C(O)C1CN(C2COc3cc(OCc4cc(OC(F)(F)F)ccc4F)ccc3C2)C1` (stereo not drawn) [Compound 104, 1-[7-[[2-fluoro-5-(trifluoromethoxy)phenyl]methoxy]chroman-3-yl]azetidine-3-carboxylic acid], for which the EC50 on human S1PR5 is 100 to 1000 nM; on human S1PR1 it was greater than 1000 nM; on human S1PR4, greater than 1000 nM.

Take `Cc1cccc(COc2ccc3c(c2)OCC(N2CC(C(=O)O)C2)C3)c1F` (stereo not drawn) [Compound 105, 1-[7-[(2-fluoro-3-methyl-phenyl)methoxy]chroman-3-yl]azetidine-3-carboxylic acid]: the half-maximal effective concentration (EC50) at human S1PR5 is 1000 to 10000 nM; at human S1PR1, greater than 1000 nM; on human S1PR4 it was greater than 1000 nM.

On to `O=C(O)C1CN(C2COc3cc(OCc4ccc(C(F)(F)F)cc4F)ccc3C2)C1` (stereo not drawn) [Compound 106, 1-[7-[[2-fluoro-4-(trifluoromethyl)phenyl]methoxy]chroman-3-yl]azetidine-3-carboxylic acid], for which the EC50 at human S1PR5 is 1000 to 10000 nM; on human S1PR1, greater than 1000 nM; at human S1PR4 it was greater than 1000 nM.

Take `CC(Oc1ccc2c(c1)OCC(N1CC(C(=O)O)C1)C2)c1ccccc1F` (stereo not drawn) [Compound 107, 1-[7-[1-(2-fluorophenyl)ethoxy]chroman-3-yl]azetidine-3-carboxylic acid]: the EC50 is 1000 to 10000 nM on human S1PR5, greater than 1000 nM at human S1PR1 and greater than 1000 nM at human S1PR4.

Regarding `O=C(O)C1CN(C2COc3cc(OCc4ccc5cc(F)ccc5n4)ccc3C2)C1` (stereo not drawn) [Compound 108, 1-[7-[(6-fluoro-2-quinolyl)methoxy]chroman-3-yl]azetidine-3-carboxylic acid], the values for the EC50 on human S1PR5, on human S1PR1 and at human S1PR4 were 1000 to 10000 nM, greater than 1000 nM and greater than 1000 nM, respectively.

With `O=C(O)C1CN(C2COc3cc(OCC4CCCCC4)ccc3C2)C1` (stereo not drawn) [Compound 109, 1-[7-(cyclohexylmethoxy)chroman-3-yl]azetidine-3-carboxylic acid], the 50% effective concentration (EC50) is 100 to 1000 nM on human S1PR5, greater than 1000 nM on human S1PR1 and greater than 1000 nM on human S1PR4.

Take `O=C(O)C1CCN(C2COc3cc(OCc4c(Cl)cccc4Cl)ccc3C2)CC1` (stereo not drawn) [Compound 110, 1-[7-[(2,6-dichlorophenyl)methoxy]chroman-3-yl]piperidine-4-carboxylic acid; Salt with 2,2,2-trifluoroacetic acid]: the EC50 on human S1PR5 is 10 to 100 nM; on human S1PR1, greater than 1000 nM; on human S1PR4, less than 1000 nM.

For `CCc1cccc(Cl)c1COc1ccc2c(c1)OCC(N1CCC(C(=O)O)CC1)C2` (stereo not drawn) [Compound 111, 1-[7-[(2-chloro-6-ethyl-phenyl)methoxy]chroman-3-yl]piperidine-4-carboxylic acid; Salt with 2,2,2-trifluoroacetic acid], the EC50 on human S1PR5 is less than 10 nM; at human S1PR1, less than 1000 nM; at human S1PR4, less than 1000 nM.

On to `O=C(O)C1CCN(C2COc3cc(OCc4ccccc4)ccc3C2)CC1` (stereo not drawn) [Compound 112, 1-(7-benzyloxychroman-3-yl)piperidine-4-carboxylic acid], for which the EC50 at human S1PR5 is 1000 to 10000 nM; on human S1PR1, greater than 1000 nM; at human S1PR4, less than 1000 nM.

Turning to `O=C(O)CNC1COc2cc(OCC3CCCCC3)ccc2C1` (stereo not drawn) [Compound 113, 2-[[7-(cyclohexylmethoxy)chroman-3-yl]amino]acetic acid], the EC50 on human S1PR5 was 100 to 1000 nM; at human S1PR1, greater than 1000 nM; at human S1PR4 it was greater than 1000 nM.

For `O=C(O)CNC1COc2cc(OCCc3c(Cl)cccc3Cl)ccc2C1` (stereo not drawn) [Compound 114, 2-[[7-[2-(2,6-dichlorophenyl)ethoxy]chroman-3-yl]amino]acetic acid], the EC50 at human S1PR5 was 1000 to 10000 nM; on human S1PR1, greater than 1000 nM; at human S1PR4, greater than 1000 nM.
